These molecules were tested on MOLT-4 (assay: Growth inhibition of human MOLT4 cells assessed as cell growth at 10 uM incubated for 48 hrs by sulforhodamine B assay relative to control). Settings: MOLT-4, 48 h, read-out: Activity.
Assay type: functional

Structure (SMILES)	growth at 10 µM
COc1cc(Cl)cc(-c2nn(-c3cccc(NC(=O)Nc4cc(C(F)(F)F)cc(C(F)(F)F)c4)c3)cc2-c2ccncc2)c1	-24.6%

What follows are molecules tested on HOP-62 (assay: Growth inhibition of human HOP62 cells assessed as cell growth at 10 uM incubated for 48 hrs by sulforhodamine B assay relative to control). Settings: HOP-62, 48 h, read-out: Activity.
Assay type: functional

Structure (SMILES)	growth at 10 µM
COc1cc(Cl)cc(-c2nn(-c3cccc(NC(=O)Nc4cc(C(F)(F)F)cc(C(F)(F)F)c4)c3)cc2-c2ccncc2)c1	-41%

Each molecule was assayed on NCI-H226 (assay: Growth inhibition of human NCI-H226 cells assessed as cell growth at 10 uM incubated for 48 hrs by sulforhodamine B assay relative to control). Settings: NCI-H226, 48 h, read-out: Activity.
Assay type: functional

Structure (SMILES)	growth at 10 µM
COc1cc(Cl)cc(-c2nn(-c3cccc(NC(=O)Nc4cc(C(F)(F)F)cc(C(F)(F)F)c4)c3)cc2-c2ccncc2)c1	-5.97%

Each molecule was assayed on NCI-H460 (assay: Growth inhibition of human NCI-H460 cells assessed as cell growth at 10 uM incubated for 48 hrs by sulforhodamine B assay relative to control). Settings: NCI-H460, 48 h, read-out: Activity.
Assay type: functional

Structure (SMILES)	growth at 10 µM
COc1cc(Cl)cc(-c2nn(-c3cccc(NC(=O)Nc4cc(C(F)(F)F)cc(C(F)(F)F)c4)c3)cc2-c2ccncc2)c1	0.24%

Each molecule was assayed on HCT-116 (assay: Growth inhibition of human HCT116 cells assessed as cell growth at 10 uM incubated for 48 hrs by sulforhodamine B assay relative to control). Settings: HCT-116, 48 h, read-out: Activity.
Assay type: functional

Structure (SMILES)	growth at 10 µM
COc1cc(Cl)cc(-c2nn(-c3cccc(NC(=O)Nc4cc(C(F)(F)F)cc(C(F)(F)F)c4)c3)cc2-c2ccncc2)c1	-4.6%

What follows are molecules tested on LOX IMVI (assay: Growth inhibition of human LOXIMVI cells assessed as cell growth at 10 uM incubated for 48 hrs by sulforhodamine B assay relative to control). Settings: read-out: Activity.
Assay type: functional

Structure (SMILES)	growth at 10 µM
COc1cc(Cl)cc(-c2nn(-c3cccc(NC(=O)Nc4cc(C(F)(F)F)cc(C(F)(F)F)c4)c3)cc2-c2ccncc2)c1	-24%

The molecules below were run on MDA-MB-435 (assay: Growth inhibition of human MDA-MB-435 cells assessed as cell growth at 10 uM incubated for 48 hrs by sulforhodamine B assay relative to control). Settings: MDA-MB-435, 48 h, read-out: Activity.
Assay type: functional

Structure (SMILES)	growth at 10 µM
COc1cc(Cl)cc(-c2nn(-c3cccc(NC(=O)Nc4cc(C(F)(F)F)cc(C(F)(F)F)c4)c3)cc2-c2ccncc2)c1	-19.4%

These molecules were tested on UACC-257 (assay: Growth inhibition of human UACC257 cells assessed as cell growth at 10 uM incubated for 48 hrs by sulforhodamine B assay relative to control). Settings: UACC-257, 48 h, read-out: Activity.
Assay type: functional

Structure (SMILES)	growth at 10 µM
COc1cc(Cl)cc(-c2nn(-c3cccc(NC(=O)Nc4cc(C(F)(F)F)cc(C(F)(F)F)c4)c3)cc2-c2ccncc2)c1	-25.6%

Each molecule was assayed on UACC-62 (assay: Growth inhibition of human UACC62 cells assessed as cell growth at 10 uM incubated for 48 hrs by sulforhodamine B assay relative to control). Settings: UACC-62, 48 h, read-out: Activity.
Assay type: functional

Structure (SMILES)	growth at 10 µM
COc1cc(Cl)cc(-c2nn(-c3cccc(NC(=O)Nc4cc(C(F)(F)F)cc(C(F)(F)F)c4)c3)cc2-c2ccncc2)c1	-21.2%

What follows are molecules tested on IGROV-1 (assay: Growth inhibition of human IGROV1 cells assessed as cell growth at 10 uM incubated for 48 hrs by sulforhodamine B assay relative to control). Settings: IGROV-1, 48 h, read-out: Activity.
Assay type: functional

Structure (SMILES)	growth at 10 µM
COc1cc(Cl)cc(-c2nn(-c3cccc(NC(=O)Nc4cc(C(F)(F)F)cc(C(F)(F)F)c4)c3)cc2-c2ccncc2)c1	23%

Each molecule was assayed on OVCAR-3 (assay: Growth inhibition of human OVCAR3 cells assessed as cell growth at 10 uM incubated for 48 hrs by sulforhodamine B assay relative to control). Settings: OVCAR-3, 48 h, read-out: Activity.
Assay type: functional

Structure (SMILES)	growth at 10 µM
COc1cc(Cl)cc(-c2nn(-c3cccc(NC(=O)Nc4cc(C(F)(F)F)cc(C(F)(F)F)c4)c3)cc2-c2ccncc2)c1	-1.62%

What follows are molecules tested on NCI/ADR-RES (assay: Growth inhibition of human NCI/ADR-RES cells assessed as cell growth at 10 uM incubated for 48 hrs by sulforhodamine B assay relative to control). Settings: read-out: Activity.
Assay type: functional

Structure (SMILES)	growth at 10 µM
COc1cc(Cl)cc(-c2nn(-c3cccc(NC(=O)Nc4cc(C(F)(F)F)cc(C(F)(F)F)c4)c3)cc2-c2ccncc2)c1	2.37%

What follows are molecules tested on SK-OV-3 (assay: Growth inhibition of human SKOV3 cells assessed as cell growth at 10 uM incubated for 48 hrs by sulforhodamine B assay relative to control). Settings: SK-OV-3, 48 h, read-out: Activity.
Assay type: functional

Structure (SMILES)	growth at 10 µM
COc1cc(Cl)cc(-c2nn(-c3cccc(NC(=O)Nc4cc(C(F)(F)F)cc(C(F)(F)F)c4)c3)cc2-c2ccncc2)c1	6.84%

Each molecule was assayed on 786-0 (assay: Growth inhibition of human 786-0 cells assessed as cell growth at 10 uM incubated for 48 hrs by sulforhodamine B assay relative to control). Settings: 786-0, 48 h, read-out: Activity.
Assay type: functional

Structure (SMILES)	growth at 10 µM
COc1cc(Cl)cc(-c2nn(-c3cccc(NC(=O)Nc4cc(C(F)(F)F)cc(C(F)(F)F)c4)c3)cc2-c2ccncc2)c1	-26.9%

Each molecule was assayed on ACHN (assay: Growth inhibition of human ACHN cells assessed as cell growth at 10 uM incubated for 48 hrs by sulforhodamine B assay relative to control). Settings: read-out: Activity.
Assay type: functional

Structure (SMILES)	growth at 10 µM
COc1cc(Cl)cc(-c2nn(-c3cccc(NC(=O)Nc4cc(C(F)(F)F)cc(C(F)(F)F)c4)c3)cc2-c2ccncc2)c1	10.3%

Each molecule was assayed on CAKI-1 (assay: Growth inhibition of human Caki1 cells assessed as cell growth at 10 uM incubated for 48 hrs by sulforhodamine B assay relative to control). Settings: CAKI-1, 48 h, read-out: Activity.
Assay type: functional

Structure (SMILES)	growth at 10 µM
COc1cc(Cl)cc(-c2nn(-c3cccc(NC(=O)Nc4cc(C(F)(F)F)cc(C(F)(F)F)c4)c3)cc2-c2ccncc2)c1	8.99%

These molecules were tested on RXF 393 (assay: Growth inhibition of human RXF393 cells assessed as cell growth at 10 uM incubated for 48 hrs by sulforhodamine B assay relative to control). Settings: RXF 393, 48 h, read-out: Activity.
Assay type: functional

Structure (SMILES)	growth at 10 µM
COc1cc(Cl)cc(-c2nn(-c3cccc(NC(=O)Nc4cc(C(F)(F)F)cc(C(F)(F)F)c4)c3)cc2-c2ccncc2)c1	-29.2%

The molecules below were run on SN12C (assay: Growth inhibition of human SN12C cells assessed as cell growth at 10 uM incubated for 48 hrs by sulforhodamine B assay relative to control). Settings: read-out: Activity.
Assay type: functional

Structure (SMILES)	growth at 10 µM
COc1cc(Cl)cc(-c2nn(-c3cccc(NC(=O)Nc4cc(C(F)(F)F)cc(C(F)(F)F)c4)c3)cc2-c2ccncc2)c1	9.32%

The molecules below were run on UO-31 (assay: Growth inhibition of human UO31 cells assessed as cell growth at 10 uM incubated for 48 hrs by sulforhodamine B assay relative to control). Settings: UO-31, 48 h, read-out: Activity.
Assay type: functional

Structure (SMILES)	growth at 10 µM
COc1cc(Cl)cc(-c2nn(-c3cccc(NC(=O)Nc4cc(C(F)(F)F)cc(C(F)(F)F)c4)c3)cc2-c2ccncc2)c1	-0.18%
